The record followed here is patent publication US11986471B2, “Compounds and methods of use” (Tango Therapeutics, Inc., priority 2018, dated 2024).

As a reminder, the IC50 is the midpoint of a concentration-inhibition curve.

Assay [1] concerns the target T1, PRMT5 (Homo sapiens, UniProt O14744).
T1 construct: purchased Viva (custom protein)
Put plainly: PRMT5 IC50 assay in the presence of MTA as cofactor. The note with it: for IC50: PRMT5, MTA as cofactor; for SAM/MTA Ratio: ratio between the Ki in the presence of SAM and the Ki in the presence of MTA. Format: biochemical. A digest of the protocol: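 For the SAM-containing format, dividing IC50 by 1.5 yields Ki; for the MTA-containing format the divisor is 13.5. A third format without cofactor gives IC50 alone.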

Assay [2] deals with T1, PRMT5. Put plainly: PRMT5 IC50 assay with no cofactor. It is filed as biochemical. In a few lines:
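Cofactor-free, SAM and MTA formats; IC50 μM; Ki = IC50/1.5 for SAM, IC50/13.5 for MTA.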

The subject of a further assay is HAP1 MTAP-intact. Put plainly: SDMA in-cell western assay, HAP1 MTAP-intact cell line. The note with it: Homo sapiens. It is filed as cell-based. In a few lines: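 Potency reflects cellular SDMA reduction, detected by in-cell western, in HAP1 cells with or without MTAP (endogenous expression versus null).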
A further assay relates to HAP1 MTAP-deleted. Put plainly: SDMA in-cell western assay, HAP1 MTAP-deleted cell line. Format: cell-based. The note with it: for IC50: Homo sapiens, HAP1 MTAP-deleted cell line; for MTAP Intact/Deleted Ratio: IC50 ratio HAP1 MTAP-intact / HAP1 MTAP-deleted. A digest of the protocol:
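These are IC50 values from an in-cell western measuring SDMA. The HAP1 cells used carry no MTAP, in contrast to the isogenic partner line with endogenous MTAP expression.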

Assay [3] has as its target T1, PRMT5. Put plainly: PRMT5 IC50 assay in the presence of SAM as cofactor. Format: biochemical. In a few lines:
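Potency against PRMT5 is compared across cofactor states, where IC50 equals Ki×1.5 with SAM present and Ki×13.5 with MTA present.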

T1 sequence (O14744 whole entry): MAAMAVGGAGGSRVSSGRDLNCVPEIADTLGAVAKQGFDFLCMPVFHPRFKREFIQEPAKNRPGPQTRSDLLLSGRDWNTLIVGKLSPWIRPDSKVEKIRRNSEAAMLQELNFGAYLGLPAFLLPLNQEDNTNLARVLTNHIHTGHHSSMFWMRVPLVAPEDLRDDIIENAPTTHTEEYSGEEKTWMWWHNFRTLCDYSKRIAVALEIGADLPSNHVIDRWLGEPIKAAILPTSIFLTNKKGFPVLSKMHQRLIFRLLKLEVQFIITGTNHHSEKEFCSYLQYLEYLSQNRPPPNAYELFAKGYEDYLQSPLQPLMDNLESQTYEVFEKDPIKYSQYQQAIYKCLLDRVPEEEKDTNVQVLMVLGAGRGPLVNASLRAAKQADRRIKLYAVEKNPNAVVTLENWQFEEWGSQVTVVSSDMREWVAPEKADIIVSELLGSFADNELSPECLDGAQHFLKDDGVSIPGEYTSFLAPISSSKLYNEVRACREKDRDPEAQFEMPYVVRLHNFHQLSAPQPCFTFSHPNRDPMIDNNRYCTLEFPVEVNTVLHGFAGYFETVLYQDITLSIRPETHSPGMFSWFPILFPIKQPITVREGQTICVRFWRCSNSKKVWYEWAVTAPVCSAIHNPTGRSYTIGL
T1 sequence (Q9BQA1 whole entry partner): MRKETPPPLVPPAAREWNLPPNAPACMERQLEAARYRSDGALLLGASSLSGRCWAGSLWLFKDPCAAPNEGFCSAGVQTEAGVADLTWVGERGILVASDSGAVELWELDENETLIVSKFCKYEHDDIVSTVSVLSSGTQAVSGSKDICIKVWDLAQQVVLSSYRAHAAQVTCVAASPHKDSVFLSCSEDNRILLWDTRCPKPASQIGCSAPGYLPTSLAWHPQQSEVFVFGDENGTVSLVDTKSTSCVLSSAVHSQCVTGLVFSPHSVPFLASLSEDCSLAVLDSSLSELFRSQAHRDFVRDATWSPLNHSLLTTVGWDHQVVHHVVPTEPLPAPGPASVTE

As to `Cc1ncoc1COc1ccc2c(c1C)CCN(C[C@@H](O)CNC(=O)c1cc(NC3CCC3)ccn1)C2` [Compound 555, 4-(cyclobutylamino)-N-[(2S)-2-hydroxy-3-{5-methyl-6-[(4-methyl-1,3-oxazol-5-yl)methoxy]-1,2,3,4-tetrahydroisoquinolin-2-yl}propyl]pyridine-2-carboxamide], the IC50 on PRMT5 [1] is 50 to 500 nM; against PRMT5 [2], not below 5000 nM; with HAP1 MTAP-intact, not below 10000 nM; with HAP1 MTAP-deleted it was 1000 to 10000 nM; on PRMT5 [3], 50 to 500 nM. On PRMT5 [1], the “SAM/MTA Ratio” value was “A (a Ki ratio greater than or equal to 10 fold between the Ki in the presence of SAM and the Ki in the presence of MTA)”. Besides, the “MTAP Intact/Deleted Ratio” value with HAP1 MTAP-deleted was “C* (an IC50 ratio of less than 3 fold between the IC50 in the HAP1 MTAP-intact cell line and the HAP1 MTAP-deleted cell line)”.
As for `CC(=O)N1CCN(c2cc(C(=O)NC[C@H](O)CN3CCc4cc(OCc5ocnc5C)ccc4C3)cc(NC3CCC3)n2)CC1` [Compound 556, 2-(4-acetylpiperazin-1-yl)-6-(cyclobutylamino)-N-[(2S)-2-hydroxy-3-{6-[(4-methyl-1,3-oxazol-5-yl)methoxy]-1,2,3,4-tetrahydroisoquinolin-2-yl}propyl]pyridine-4-carboxamide], the IC50 on PRMT5 [1] is 50 to 500 nM; at PRMT5 [2] it was 500 to 5000 nM; in the assay on HAP1 MTAP-intact it was less than 1000 nM; in the assay on HAP1 MTAP-deleted it was less than 1000 nM; at PRMT5 [3] it was 50 to 500 nM. Also, the “SAM/MTA Ratio” value at PRMT5 [1] was “A (a Ki ratio greater than or equal to 10 fold between the Ki in the presence of SAM and the Ki in the presence of MTA)”. Further, in the assay with HAP1 MTAP-deleted, the “MTAP Intact/Deleted Ratio” value is “B* (an IC50 ratio greater than or equal to 3 fold but lower than 10 fold between the IC50 in the HAP1 MTAP-intact cell line and the HAP1 MTAP-deleted cell line)”.
On to `CC(=O)N1CCC(Nc2ccnc(C(=O)NC[C@H](O)CN3CCc4c(ccc(OCc5cnco5)c4C)C3)c2)CC1` [Compound 559], for which the IC50 on PRMT5 [1] was 50 to 500 nM; at PRMT5 [2], 500 to 5000 nM; in the assay with HAP1 MTAP-intact it was not below 10000 nM; with HAP1 MTAP-deleted, 1000 to 10000 nM; at PRMT5 [3], 50 to 500 nM. Further, the “SAM/MTA Ratio” value on PRMT5 [1] was “A (a Ki ratio greater than or equal to 10 fold between the Ki in the presence of SAM and the Ki in the presence of MTA)”. Also, the “MTAP Intact/Deleted Ratio” value with HAP1 MTAP-deleted was “C* (an IC50 ratio of less than 3 fold between the IC50 in the HAP1 MTAP-intact cell line and the HAP1 MTAP-deleted cell line)”.
For `CCCC(=O)N1CCC(Nc2cc(C(=O)NC[C@H](O)CN3CCc4c(ccc(OCc5cnco5)c4C)C3)ncn2)CC1` [Compound 560, 6-[(1-butanoylpiperidin-4-yl)amino]-N-[(2S)-2-hydroxy-3-{5-methyl-6-[(1,3-oxazol-5-yl)methoxy]-1,2,3,4-tetrahydroisoquinolin-2-yl}propyl]pyrimidine-4-carboxamide], the IC50 is 50 to 500 nM at PRMT5 [1]; 500 to 5000 nM against PRMT5 [2]; not below 10000 nM with HAP1 MTAP-intact; 1000 to 10000 nM with HAP1 MTAP-deleted; 50 to 500 nM on PRMT5 [3]. Further, the “SAM/MTA Ratio” value at PRMT5 [1] was “A (a Ki ratio greater than or equal to 10 fold between the Ki in the presence of SAM and the Ki in the presence of MTA)”. Besides, the “MTAP Intact/Deleted Ratio” value with HAP1 MTAP-deleted was “B* (an IC50 ratio greater than or equal to 3 fold but lower than 10 fold between the IC50 in the HAP1 MTAP-intact cell line and the HAP1 MTAP-deleted cell line)”.
Take `O=C(NC[C@H](O)CN1CCc2cc(OCc3cnco3)ccc2C1)c1ccc2c(c1)CCN(C(=O)c1ccc(Br)cc1)C2` [Compound 561]: the IC50 at PRMT5 [1] was 50 to 500 nM; against PRMT5 [2], 500 to 5000 nM; in the assay with HAP1 MTAP-intact, not below 10000 nM; in the assay with HAP1 MTAP-deleted it was 1000 to 10000 nM; at PRMT5 [3], 50 to 500 nM. Also, the “SAM/MTA Ratio” value at PRMT5 [1] is “A (a Ki ratio greater than or equal to 10 fold between the Ki in the presence of SAM and the Ki in the presence of MTA)”. In addition, in the assay with HAP1 MTAP-deleted, the “MTAP Intact/Deleted Ratio” value was “B* (an IC50 ratio greater than or equal to 3 fold but lower than 10 fold between the IC50 in the HAP1 MTAP-intact cell line and the HAP1 MTAP-deleted cell line)”.
Consider `O=C(NC[C@H](O)CN1CCc2cc(OCc3cnco3)ccc2C1)c1ccnc(NC2CN(C(=O)C3CC3)C2)c1` [Compound 563, 2-[[1-(cyclopropanecarbonyl)azetidin-3-yl]amino]-N-[(2S)-2-hydroxy-3-[6-(oxazol-5-ylmethoxy)-3,4-dihydro-1H-isoquinolin-2-yl]propyl]pyridine-4-carboxamide], for which the IC50 on PRMT5 [1] lay within 50 to 500 nM; on PRMT5 [2], 500 to 5000 nM; in the assay on HAP1 MTAP-intact, 1000 to 10000 nM; with HAP1 MTAP-deleted, 1000 to 10000 nM; at PRMT5 [3] it was 50 to 500 nM. On PRMT5 [1], the “SAM/MTA Ratio” value was “A (a Ki ratio greater than or equal to 10 fold between the Ki in the presence of SAM and the Ki in the presence of MTA)”. Moreover, the “MTAP Intact/Deleted Ratio” value in the assay with HAP1 MTAP-deleted is “C* (an IC50 ratio of less than 3 fold between the IC50 in the HAP1 MTAP-intact cell line and the HAP1 MTAP-deleted cell line)”.
Regarding `CC(=O)N1CC(Nc2cc(C(=O)NC[C@H](O)CN3CCc4cc(OCc5ocnc5C)ccc4C3)nc(C(C)(C)C)n2)C1` [Compound 564, (S)-6-((1-acetylazetidin-3-yl)amino)-2-(tert-butyl)-N-(2-hydroxy-3-(6-((4-methyloxazol-5-yl)methoxy)-3,4-dihydroisoquinolin-2(1H)-yl)propyl)pyrimidine-4-carboxamide], the IC50 at PRMT5 [1] was 50 to 500 nM; against PRMT5 [2], 500 to 5000 nM; with HAP1 MTAP-intact, 1000 to 10000 nM; in the assay with HAP1 MTAP-deleted it was less than 1000 nM; on PRMT5 [3], 50 to 500 nM. Also, at PRMT5 [1], the “SAM/MTA Ratio” value was “A (a Ki ratio greater than or equal to 10 fold between the Ki in the presence of SAM and the Ki in the presence of MTA)”. Also, the “MTAP Intact/Deleted Ratio” value in the assay with HAP1 MTAP-deleted was “B* (an IC50 ratio greater than or equal to 3 fold but lower than 10 fold between the IC50 in the HAP1 MTAP-intact cell line and the HAP1 MTAP-deleted cell line)”.
For the compound `CC(C)N1CCN(c2cc(C(=O)NC[C@H](O)CN3CCc4c(ccc(OCc5cnco5)c4Cl)C3)cc(NC3CCC3)n2)CC1` [Compound 566], the IC50 is 50 to 500 nM at PRMT5 [1]; 500 to 5000 nM at PRMT5 [2]; not below 10000 nM with HAP1 MTAP-intact; not below 10000 nM with HAP1 MTAP-deleted; 50 to 500 nM on PRMT5 [3]. On PRMT5 [1], the “SAM/MTA Ratio” value was “A (a Ki ratio greater than or equal to 10 fold between the Ki in the presence of SAM and the Ki in the presence of MTA)”. The “MTAP Intact/Deleted Ratio” value in the assay on HAP1 MTAP-deleted is “C* (an IC50 ratio of less than 3 fold between the IC50 in the HAP1 MTAP-intact cell line and the HAP1 MTAP-deleted cell line)”.
Take `CC(=O)N1CC(Nc2cc(C(=O)NC[C@H](O)CN3CCc4cc(OCc5ocnc5C)ccc4C3)nc(C(C)C)n2)C1` [Compound 568, (S)-6-((1-acetylazetidin-3-yl)amino)-N-(2-hydroxy-3-(6-((4-methyloxazol-5-yl)methoxy)-3,4-dihydroisoquinolin-2(1H)-yl)propyl)-2-isopropylpyrimidine-4-carboxamide]: the half-maximal inhibitory concentration (IC50) on PRMT5 [1] is 50 to 500 nM; against PRMT5 [2], 500 to 5000 nM; in the assay on HAP1 MTAP-intact, 1000 to 10000 nM; with HAP1 MTAP-deleted, less than 1000 nM; on PRMT5 [3], 50 to 500 nM. The “SAM/MTA Ratio” value on PRMT5 [1] is “A (a Ki ratio greater than or equal to 10 fold between the Ki in the presence of SAM and the Ki in the presence of MTA)”. In addition, the “MTAP Intact/Deleted Ratio” value with HAP1 MTAP-deleted was “C* (an IC50 ratio of less than 3 fold between the IC50 in the HAP1 MTAP-intact cell line and the HAP1 MTAP-deleted cell line)”.
`CC(=O)N1CC(Nc2cc(C(=O)NC[C@H](O)CN3CCc4c(ccc(OCc5ocnc5C)c4C)C3)nc(C(C)(C)C)n2)C1` [Compound 569, (S)-6-((1-acetylazetidin-3-yl)amino)-2-(tert-butyl)-N-(2-hydroxy-3-(5-methyl-6-((4-methyloxazol-5-yl)methoxy)-3,4-dihydroisoquinolin-2(1H)-yl)propyl)pyrimidine-4-carboxamide]: the IC50 on PRMT5 [1] is 50 to 500 nM; against PRMT5 [2] it was not below 5000 nM; with HAP1 MTAP-intact, not below 10000 nM; in the assay with HAP1 MTAP-deleted it was 1000 to 10000 nM; on PRMT5 [3] it was 50 to 500 nM. In addition, the “SAM/MTA Ratio” value on PRMT5 [1] is “A (a Ki ratio greater than or equal to 10 fold between the Ki in the presence of SAM and the Ki in the presence of MTA)”. For the same compound, in the assay on HAP1 MTAP-deleted, the “MTAP Intact/Deleted Ratio” value was “B* (an IC50 ratio greater than or equal to 3 fold but lower than 10 fold between the IC50 in the HAP1 MTAP-intact cell line and the HAP1 MTAP-deleted cell line)”.
Take `CCC(=O)N1CCN(c2cc(C(=O)NC[C@H](O)CN3CCc4c(ccc(OCc5cnco5)c4Cl)C3)cc(NC3CCC3)n2)CC1` [Compound 570, (S)—N-(3-(5-chloro-6-(oxazol-5-ylmethoxy)-3N-dihydroisoquinolin-2(1H)-yl)-2-hydroxypropyl)-2-(cyclobutylamino)-6-(4-propionylpiperazin-1-yl)isonicotinamide]: the concentration for half-maximal inhibition (IC50) at PRMT5 [1] was 50 to 500 nM; against PRMT5 [2], 500 to 5000 nM; with HAP1 MTAP-intact it was not below 10000 nM; with HAP1 MTAP-deleted it was less than 1000 nM; at PRMT5 [3], 50 to 500 nM. Moreover, at PRMT5 [1], the “SAM/MTA Ratio” value is “A (a Ki ratio greater than or equal to 10 fold between the Ki in the presence of SAM and the Ki in the presence of MTA)”. Moreover, in the assay on HAP1 MTAP-deleted, the “MTAP Intact/Deleted Ratio” value is “A* (an IC50 ratio greater than or equal to 10 fold between the IC50 in the HAP1 MTAP-intact cell line and the HAP1 MTAP-deleted cell line)”.
